Converted amounts (≈) assume the structure as drawn.

Usually IC50 stands for the concentration that gives 50% inhibition.

For the first series, the system named is M. tuberculosis H37Rv. The series can be described thus: microbe, parasite or virus in culture. It is filed as cell-based, Mycobacterium tuberculosis.
Details: not given
Consider `CN(C)c1ccc2cccc(O)c2n1` [Compound 14], for which the “anti-tubercular activity (in words)” value is “loss of activity”.

Turning to `Oc1cccc2ccc(N3CCCCC3)nc12` [Compound 15], the “anti-tubercular activity (in words)” value is listed as “loss of activity”.

On to `OCc1ccccc1CN1CCN(Cc2ccc3cccc(O)c3n2)CC1` [Compound 26], for which the “anti-tubercular activity (in words)” value is recorded as “not tolerated”.

For the compound `Oc1cccc2ccc(Nc3ccccc3)nc12` [Compound 16], the “anti-tubercular activity (in words)” value is given as “loss of activity”.

Regarding `[O-][n+]1cccc2cccc(O)c21` [Compound 10], the “anti-tubercular activity (in words)” value is on record as “loss of activity”.

With `CC(=O)Nc1ccc2cccc(O)c2n1` [Compound 17], the “anti-tubercular activity (in words)” value was “not tolerated”.

Regarding `Nc1ccc2cccc(O)c2n1` [Compound 12], the “anti-tubercular activity (in words)” value was “retained measurable anti‐tubercular activity”.

`Oc1ccc(CN2CCN(c3ccc(F)cc3)CC2)c2cccnc12` [Compound 9]: the “anti-tubercular activity (in words)” value was “abrogated the anti‐tubercular activity”.

With `Cc1ccc2cccc(O)c2n1` [Compound 11], the “anti-tubercular activity (in words)” value is on record as “not tolerated”.

Turning to `Oc1ccc(CNc2cccc(Br)c2)c2cccnc12` [Compound 8], the “anti-tubercular activity (in words)” value was “abrogated the anti‐tubercular activity”.

In the case of `CNc1ccc2cccc(O)c2n1` [Compound 13], the “anti-tubercular activity (in words)” value was “retained measurable anti‐tubercular activity”.

As for `Oc1cccc2cccnc12` [Compound 1, 8‐hydroxyquinoline], the MIC is 3.6 ± 0.20 (2) μM.

Staying with this series, now noted: Mycobacterium tuberculosis, H37RV, 120 h.
For `Oc1cccc2cccnc12` [Compound 1, 8‐hydroxyquinoline], the MIC stood at 3.6 µM (≈ 0.523 µg/mL).

Staying with this series, now noted: Mycobacterium tuberculosis, H37RV, 120 h; […]; mean ± SD (n in parentheses); read-out: MIC.
Consider `COc1ccccc1/C=C/c1ccc2cccc(O)c2n1` [Compound 22], for which the MIC was 13 ± 9.1 µM (≈ 3.61 µg/mL).

For `Cc1ccc(O)c2ncccc12` [Compound 2], the MIC is 3.1 ± 1.1 µM (≈ 0.493 µg/mL).

Turning to `Oc1cccc2ccc(/C=C/c3ccccc3Cl)nc12` [Compound 25], the MIC stood at 5.8 ± 2.2 µM (≈ 1.63 µg/mL).

Take `CN(C)c1ccc2cccc(O)c2n1` [Compound 14]: the MIC was more than 20 µM.

Regarding `Oc1c(Cl)cc(Cl)c2cccnc12` [Compound 5], the MIC amounted to 8.4 µM (≈ 1.8 µg/mL).

Turning to `Oc1cccc2ccc(N3CCCCC3)nc12` [Compound 15], the MIC is more than 20 µM.

Consider `Cc1cc(C)n(-c2ccc3cccc(O)c3n2)n1` [Compound 19], for which the MIC is more than 20 µM.

`Oc1ccc(Cl)c2cccnc12` [Compound 4]: the MIC was 3 ± 1 µM (≈ 0.539 µg/mL).

On to `Oc1ccc(Br)c2cccnc12` [Compound 3], for which the MIC was determined as 2.9 ± 0.4 µM (≈ 0.65 µg/mL).

With `OCc1ccccc1CN1CCN(Cc2ccc3cccc(O)c3n2)CC1` [Compound 26], the MIC is more than 20 µM.

As to `Oc1ccc(COC2CCCCC2)c2cccnc12` [Compound 7], the MIC is 3.2 ± 0.85 µM (≈ 0.823 µg/mL).

`Oc1cccc2ccc(/C=C/c3cccc(F)c3)nc12` [Compound 24]: the MIC stood at 13 ± 6.3 µM (≈ 3.45 µg/mL).

With `Oc1cccc2ccc(Nc3ccccc3)nc12` [Compound 16], the MIC is more than 20 µM.

With `[O-][n+]1cccc2cccc(O)c21` [Compound 10], the MIC was more than 20 µM.

For `CC(=O)Nc1ccc2cccc(O)c2n1` [Compound 17], the MIC is more than 20 µM.

Consider `Nc1ccc2cccc(O)c2n1` [Compound 12], for which the MIC was determined as 4.6 ± 1.7 µM (≈ 0.737 µg/mL).

For `Oc1ccc(CN2CCN(c3ccc(F)cc3)CC2)c2cccnc12` [Compound 9], the MIC was more than 20 µM.

As to `Cc1ccc2cccc(O)c2n1` [Compound 11], the MIC was more than 20 µM.

As to `COc1cccc(/C=C/c2ccc3cccc(O)c3n2)c1` [Compound 21], the MIC came to 8.7 ± 0.2 µM (≈ 2.41 µg/mL).

Turning to `Oc1ccc(CNc2cccc(Br)c2)c2cccnc12` [Compound 8], the MIC was more than 20 µM.

Turning to `CNc1ccc2cccc(O)c2n1` [Compound 13], the MIC amounted to 6.4 ± 0.35 µM (≈ 1.11 µg/mL).

For the compound `Oc1cccc2ccc(/C=C/c3ccc4c(c3)OCO4)nc12` [Compound 23], the MIC was determined as 15 ± 5 µM (≈ 4.37 µg/mL).

As for `O=[N+]([O-])c1ccc(O)c2ncccc12` [Compound 6], the MIC stood at 4.8 ± 3.3 µM (≈ 0.913 µg/mL).

Staying with this series, now noted: […]; mean ± SD (n in parentheses).
`Oc1c(Cl)cc(Cl)c2cccnc12` [Compound 5]: the MIC is given as 8.4 ± 4.5 (6) μM.

System in another series: not listed separately
As to the kind of experiment: Vero cell cytotoxicity, CellTiter-Glo, 2 days. It is filed as cell-based. The conditions noted are these: African green monkey, Vero cells (CCL81), 2 days exposure. As to the method: Vero cells (CCL81) were cultured in high‐glucose Dulbecco's modified Eagle medium with GlutaMax (Invitrogen), 10% v/v fetal bovine serum, 50 units/mL penicillin, and 50 μg/mL streptomycin. Cells were exposed to compounds for 2 days and viability was determined using CellTiter‐Glo (Promega).
For orientation: ATP-based viability assays read luminescence as a measure of living cells.
`COc1ccccc1/C=C/c1ccc2cccc(O)c2n1` [Compound 22] showed an IC50 at 2 days of 6.2 µM.

Compound `Cc1ccc(O)c2ncccc12` [Compound 2] displayed an IC50 at 2 days of 1.4 µM.

`Oc1cccc2ccc(/C=C/c3ccccc3Cl)nc12` [Compound 25] yielded a half-inhibitory concentration (IC50) at 2 days of 9 µM.

As for `CN(C)c1ccc2cccc(O)c2n1` [Compound 14], the IC50 at 2 days was more than 50 µM.

`Oc1c(Cl)cc(Cl)c2cccnc12` [Compound 5] gave a half-maximal inhibitory concentration (IC50) at 2 days of 1.3 µM.

For `Oc1cccc2ccc(N3CCCCC3)nc12` [Compound 15], the IC50 at 2 days was more than 50 µM.

For the compound `Cc1cc(C)n(-c2ccc3cccc(O)c3n2)n1` [Compound 19], inhibition was half-maximal at 19 µM (IC50 at 2 days).

`Oc1ccc(Cl)c2cccnc12` [Compound 4] showed a concentration for half-maximal inhibition (IC50) at 2 days of 2.4 µM.

Compound `Oc1ccc(Br)c2cccnc12` [Compound 3] yielded a 50% inhibitory concentration (IC50) at 2 days of 1.8 µM.

Compound `OCc1ccccc1CN1CCN(Cc2ccc3cccc(O)c3n2)CC1` [Compound 26] gave an IC50 at 2 days of 11 µM.

Regarding `Oc1ccc(COC2CCCCC2)c2cccnc12` [Compound 7], inhibition was half-maximal at 6.2 µM (IC50 at 2 days).

`Oc1cccc2ccc(/C=C/c3cccc(F)c3)nc12` [Compound 24] showed an IC50 at 2 days of 7.2 µM.

Consider `Oc1cccc2ccc(Nc3ccccc3)nc12` [Compound 16], for which half-maximal inhibition (IC50 at 2 days) was put at 0.94 µM.

With `[O-][n+]1cccc2cccc(O)c21` [Compound 10], the half-maximal inhibitory concentration (IC50) at 2 days was more than 20 µM.

As for `CC(=O)Nc1ccc2cccc(O)c2n1` [Compound 17], the midpoint of inhibition, the IC50 at 2 days, lay at 4.9 µM.

`Oc1ccc(CN2CCN(c3ccc(F)cc3)CC2)c2cccnc12` [Compound 9] came in with an IC50 at 2 days of 5.8 µM.

As for `COc1cccc(/C=C/c2ccc3cccc(O)c3n2)c1` [Compound 21], the IC50 at 2 days is 2.9 µM.

Compound `Oc1ccc(CNc2cccc(Br)c2)c2cccnc12` [Compound 8] showed an IC50 at 2 days of 7.5 µM.

`CNc1ccc2cccc(O)c2n1` [Compound 13] had a 50% inhibitory concentration (IC50) at 2 days of 8.2 µM.

With `Oc1cccc2ccc(/C=C/c3ccc4c(c3)OCO4)nc12` [Compound 23], inhibition was half-maximal at 6 µM (IC50 at 2 days).

With `O=[N+]([O-])c1ccc(O)c2ncccc12` [Compound 6], inhibition was half-maximal at 2.9 µM (IC50 at 2 days).

The same series, now with this note: African green monkey, Vero cells, 2 days exposure.
The compound `Nc1ccc2cccc(O)c2n1` [Compound 12] returned an IC50 at 2 days of 3.3 µM.

`Cc1ccc2cccc(O)c2n1` [Compound 11] displayed a concentration for half-maximal inhibition (IC50) at 2 days of 12 µM.

`Oc1cccc2cccnc12` [Compound 1, 8‐hydroxyquinoline] registered an IC50 at 2 days of 1.4 µM.

The next series concerns M. tuberculosis. As to the kind of experiment: Kill kinetics against replicating M. tuberculosis (CFU). It is filed as cell-based, Mycobacterium tuberculosis. The conditions noted are these: replicating conditions, 7H9-OADC-Tw medium, 1× to 10× MIC.
Take `Oc1ccc(Cl)c2cccnc12` [Compound 4]: the “bactericidal activity (in words)” value is “bactericidal”.

`Oc1cccc2ccc(/C=C/c3cccc(F)c3)nc12` [Compound 24]: the “bactericidal activity (in words)” value is “bactericidal”.

The series is the same for the next values; noted with them: replicating conditions; 12 μM (2.5× MIC) and higher, within 14 days.
For `Oc1ccc(Cl)c2cccnc12` [Compound 4], the “logs of bacteria killed” value was not below 3 logs.

The same series, now with this note: replicating conditions; 27 μM (10× MIC), within 14 days.
In the case of `Oc1cccc2ccc(/C=C/c3cccc(F)c3)nc12` [Compound 24], the “log kill (sterilized the culture)” value is more than 4 log.

Still in this series, the particulars now being: replicating conditions; concentrations above 14 μM (5× MIC).
In the case of `Oc1cccc2ccc(/C=C/c3cccc(F)c3)nc12` [Compound 24], the “logs of bacteria killed” value is not below 2 logs.

The subject of a further series is HepG2 human liver cells.
Experiment: not given
Details: not given
For the compound `[O-][n+]1cccc2cccc(O)c21` [Compound 10], the “cytotoxicity against HepG2 cells (in words)” value is reported as “significant reduction of cytotoxicity”.

For another series, the system named is HepG2 human liver cells. As to the kind of experiment: HepG2 cytotoxicity, CellTiter-Glo, 72 hr. The note with it: HepG2, 72 h, read-out: HepG2 IC50.
In the case of `COc1ccccc1/C=C/c1ccc2cccc(O)c2n1` [Compound 22], the IC50 amounted to 12 ± 2 µM.

Take `Cc1ccc(O)c2ncccc12` [Compound 2]: the concentration for half-maximal inhibition (IC50) came out at 6.5 ± 1.7 µM.

Consider `Oc1cccc2ccc(/C=C/c3ccccc3Cl)nc12` [Compound 25], for which the IC50 came out at 12 ± 1 µM.

For `CN(C)c1ccc2cccc(O)c2n1` [Compound 14], the IC50 is more than 100 µM.

In the case of `Oc1c(Cl)cc(Cl)c2cccnc12` [Compound 5], the IC50 is 7.6 ± 1.2 µM.

For `Oc1cccc2ccc(N3CCCCC3)nc12` [Compound 15], the IC50 is more than 100 µM.

`Cc1cc(C)n(-c2ccc3cccc(O)c3n2)n1` [Compound 19]: the concentration for half-maximal inhibition (IC50) was 12 ± 0.5 µM.

As for `Oc1ccc(Cl)c2cccnc12` [Compound 4], the half-maximal inhibitory concentration (IC50) is 7.6 ± 1.5 µM.

With `Oc1ccc(Br)c2cccnc12` [Compound 3], the IC50 came to 6.9 ± 0.59 µM.

In the case of `OCc1ccccc1CN1CCN(Cc2ccc3cccc(O)c3n2)CC1` [Compound 26], the IC50 is 14 ± 0.5 µM.

`Oc1ccc(COC2CCCCC2)c2cccnc12` [Compound 7]: the half-maximal inhibitory concentration (IC50) turned out to be 4.9 ± 1.9 µM.

For the compound `Oc1cccc2ccc(/C=C/c3cccc(F)c3)nc12` [Compound 24], the IC50 was found to be 8 ± 0.6 µM.

In the case of `Oc1cccc2ccc(Nc3ccccc3)nc12` [Compound 16], the half-maximal inhibitory concentration (IC50) turned out to be 3.8 ± 0.45 µM.

With `[O-][n+]1cccc2cccc(O)c21` [Compound 10], the IC50 is less than 88 µM.

With `CC(=O)Nc1ccc2cccc(O)c2n1` [Compound 17], the IC50 was determined as 9 ± 1 µM.

For `Nc1ccc2cccc(O)c2n1` [Compound 12], the IC50 turned out to be 12 ± 0.5 µM.

Turning to `Oc1ccc(CN2CCN(c3ccc(F)cc3)CC2)c2cccnc12` [Compound 9], the IC50 was determined as 9.8 ± 2.2 µM.

In the case of `Cc1ccc2cccc(O)c2n1` [Compound 11], the half-inhibitory concentration (IC50) is 28 ± 9 µM.

Turning to `COc1cccc(/C=C/c2ccc3cccc(O)c3n2)c1` [Compound 21], the IC50 worked out at 10 ± 1 µM.

For `Oc1ccc(CNc2cccc(Br)c2)c2cccnc12` [Compound 8], the IC50 was found to be 12 ± 0.5 µM.

For the compound `CNc1ccc2cccc(O)c2n1` [Compound 13], the half-inhibitory concentration (IC50) turned out to be 22 ± 2.8 µM.

Take `Oc1cccc2ccc(/C=C/c3ccc4c(c3)OCO4)nc12` [Compound 23]: the IC50 was 9.1 ± 3 µM.

Take `O=[N+]([O-])c1ccc(O)c2ncccc12` [Compound 6]: the concentration for half-maximal inhibition (IC50) was 7.7 ± 1.8 µM.

For the compound `Oc1cccc2cccnc12` [Compound 1, 8‐hydroxyquinoline], the IC50 came out at 7.6 ± 0.68 µM.

(Values after publication PMC6767403, “8‐Hydroxyquinolines are bactericidal against Mycobacterium tuberculosis” (Drug Development Research, 2019).)
